Key:
[1] = system: mitochondrial DNA (COXII gene) in HepG2 cells; experiment: Mitochondrial toxicity assay in HepG2 cells: mitochondrial DNA; type: cell-based; details: for MtDNA (% of control): human, 14 day
[2] = system: wild type HBV; experiment: Anti-HBV assay in AD-38 cell line; type: cell-based; details: Hepatitis B virus, AD-38 cells, HBV in culture supernatant
[3] = Homo sapiens, HepG2, 336 h, read-out: % inhibition MtDNA

C#CCNC(=O)C(=O)c1c(C)c(C(=O)Nc2ccc(F)c(F)c2)n(C)c1C [Compound 7a, 4-[(Propargylamino)(oxo)acetyl]-N-(3,4-difluorophenyl)-1,3,5-trimethyl-1H-pyrrole-2-carboxamide]
inhibition at 25 µM [1, 3]: < 1% | inhibition at 50 µM [1, 3]: 17.7% | MtDNA (% of control) ([1]; 25 μM): 91.8 (80.2-105) % of control | MtDNA (% of control) ([1]; 50 μM): 94.6 (73.8-121) % of control | EC50 ([2]; read-out: Anti-HBV activity EC50): 1 to 9 nM | EC90 ([2]; read-out: Anti-HBV activity EC90): 10 to 90 nM

Reference: patent US10752584B2 (EMORY UNIVERSITY, priority 2016, dated 2020)
